Target: human CB2 receptor (Homo sapiens, UniProt P34972)
Assay: cAMP Hunter functional activity assay at the CB2 receptors
Format: cell-based
Set-up: host or cells: CHO-K1
Conditions: 10 μM, highest concentration tested, CHO-K1 cells overexpressing human CB2
Experimental: The cAMP Hunter™ eXpress G protein-coupled receptor (GPCR) assay was performed in Chinese Hamster Ovary (CHO)-Kl cells overexpressing the human CB2 receptor. Gi-coupled cAMP modulation was measured following the manufacturer’s protocol (DiscoverX, Fremont, CA). CHO-K1 cells overexpressing the human CB2 receptor were plated into a 96-well plate (3× 10^4 cells/well) and incubated overnight at 37 °C in 5% CO2 atmosphere. The media were aspirated and replaced with 30 μl of assay buffer. Cells were incubated 30 min at 37 °C with 15 μl of 3× concentration-response solutions of 2-AG (0.01–50 μM), or PEA (10 μM), prepared in presence of cell assay buffer containing a 3× of 25 μM NKH-477 solution (a water-soluble analog of Forskolin) to stimulate adenylate cyclase and enhance basal cAMP levels. We also investigated the effect of PEA on 2-AG receptor activation by co-incubation. Therefore, cells were also incubated 30 min at 37 °C with 2-AG and PEA (10 μM) in the presence of NKH-477 to stimulate adenylate cyclase and enhance cAMP levels. […] Relative luminescence units (RLU) were measured by using a GloMax Multi Detection System (Promega Italia). […] The percentage of response was calculated by using the following formula: % RESPONSE = 100% × (1-(RLU of test compound-RLU of NKH-477 positive control)/(RLU of vehicle-RLU of NKH-477 positive control).

human CB2 receptor, sequence (P34972 whole entry): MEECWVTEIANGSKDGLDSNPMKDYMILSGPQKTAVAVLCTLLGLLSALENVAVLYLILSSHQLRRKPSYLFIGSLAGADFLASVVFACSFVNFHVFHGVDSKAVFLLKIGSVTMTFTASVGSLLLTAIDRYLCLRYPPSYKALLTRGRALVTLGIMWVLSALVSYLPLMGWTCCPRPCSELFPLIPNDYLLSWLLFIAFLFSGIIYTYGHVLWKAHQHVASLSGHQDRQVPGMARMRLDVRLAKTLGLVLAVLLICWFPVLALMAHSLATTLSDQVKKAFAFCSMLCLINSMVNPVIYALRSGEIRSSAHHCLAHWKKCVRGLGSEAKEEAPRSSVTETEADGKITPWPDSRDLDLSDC

CCCCCCCCCCCCCCCC(=O)NCCO [PEA, Palmitoylethanolamide]
effect on NKH-477-induced cAMP levels (CB2 activation): failed at decreasing cAMP levels

— paper PMC6933707, “Palmitoylethanolamide counteracts substance P-induced mast cell activation in vitro by stimulating diacylglycerol lipase activity” (Journal of Neuroinflammation, 2019)
